ChEMBL document CHEMBL4665820, “Discovery of VU6027459: A First-in-Class Selective and CNS Penetrant mGlu Positive Allosteric Modulator Tool Compound” (ACS Med Chem Lett, 2020)

Experiments:
Rattus norvegicus [1] = organism: Rattus norvegicus; assay: Displacement of [3H]-Diltiazem from L-type calcium channel benzothiazepine binding site in rat brain at 10 uM incubated for 180 mins by scintillation counting analysis relative to control; assay type: tissue-based
[2] = biological target: Adenosine receptor A1 (Homo sapiens) (UniProt P30542); assay: Displacement of [3H]-DPCPX from human recombinant adenosine A1 receptor at 10 uM after 60 mins by scintillation counting analysis relative to control
[3] = biological target: Metabotropic glutamate receptor 7 (Rattus norvegicus) (UniProt P35400); assay: Positive allosteric modulation of rat mGlu7 receptor expressed in HEK293 cells co-expressing Gai5 assessed as potentiation of L-AP4-induced calcium mobilization preincubated for 140 secs and treated with EC20 L-AP4 for 125 secs and followed by subsequent addition of EC80 L-AP4 by Fluo-4-AM dye based fluorescence assay relative to maximal induction of L-AP4; assay type: functional, cell-based; conditions: filed as positive allosteric modulator, time 140.0 sec
[4] = biological target: Adenosine receptor A3 (Homo sapiens) (UniProt P0DMS8); assay: Displacement of [125I]AB-MECA from human recombinant adenosine A3 receptor at 10 uM after 120 mins by scintillation counting analysis relative to control
[5] = biological target: Alpha-1B adrenergic receptor (Homo sapiens) (UniProt P35368); assay: Displacement of [3H]-Prazosin from human recombinant adrenergic alpha 1B receptor at 10 uM incubated for 60 mins by scintillation counting analysis relative to control
[6] = biological target: Alpha-2A adrenergic receptor (Homo sapiens) (UniProt P08913); assay: Displacement of [3H]-RX821002 from human recombinant adrenergic alpha 2A receptor at 10 uM incubated for 60 mins by scintillation counting analysis relative to control
[7] = biological target: Androgen receptor (Homo sapiens) (UniProt P10275); assay: Displacement of [3H]-methyltrienolone from human androgen receptor at 10 uM incubated for 1440 mins by scintillation counting analysis relative to control
[8] = biological target: B2 bradykinin receptor (Homo sapiens) (UniProt P30411); assay: Displacement of [3H]bradykinin from human recombinant B2 receptor at 10 uM after 60 mins by scintillation counting analysis relative to control
[9] = biological target: D(2) dopamine receptor (Homo sapiens) (UniProt P14416); assay: Displacement of [3H]7-OH-DPAT from human recombinant dopamine D2S receptor at 10 uM after 60 mins by scintillation counting analysis relative to control
[10] = biological target: Endothelin-1 receptor (Homo sapiens) (UniProt P25101); assay: Displacement of [125I]-endothelin-1 from human recombinant ETA receptor at 10 uM after 120 mins by scintillation counting analysis relative to control
[11] = biological target: Endothelin receptor type B (Homo sapiens) (UniProt P24530); assay: Displacement of [125I]-endothelin1 from human recombinant Endothelin ETB receptor cells at 10 uM incubated for 120 mins by scintillation counting analysis relative to control; assay type: cell-based
Rattus norvegicus [12] = organism: Rattus norvegicus; assay: Displacement of [3H]-Flunitrazepam from GABAA channel flunitrazepam binding site in rat brain at 10 uM incubated for 60 mins by scintillation counting analysis relative to control; assay type: tissue-based
[13] = biological target: Gamma-aminobutyric acid type B receptor subunit 1 (Homo sapiens) (UniProt Q9UBS5); assay: Displacement of [3H]-CGP54626 from human recombinant GABAB1A channel at 10 uM incubated for 180 mins by scintillation counting analysis relative to control
Rattus norvegicus [14] = organism: Rattus norvegicus; assay: Displacement of [3H]-Kainic acid from Glutamate ionotropic kainate receptor in rat at 10 uM incubated for 120 mins by scintillation counting analysis relative to control
[15] = biological target: Histamine H2 receptor (Homo sapiens) (UniProt P25021); assay: Displacement of [125I]APT from human recombinant histamine H2 receptor at 10 uM after 120 mins by scintillation counting analysis relative to control
[16] = biological target: Histamine H3 receptor (Homo sapiens) (UniProt Q9Y5N1); assay: Displacement of [3H]-N-alpha-Methylhistamine from human recombinant Histamine H3 receptor at 10 uM incubated for 60 mins by scintillation counting analysis relative to control
[17] = biological target: Interleukin-1 receptor type 1 (Homo sapiens) (UniProt P14778); assay: Displacement of [125I]-Interleukin 1beta from human interleukin IL-1 R1 receptor at 10 uM incubated for 120 mins by scintillation counting analysis relative to control
[18] = biological target: Cysteinyl leukotriene receptor 1 (Homo sapiens) (UniProt Q9Y271); assay: Displacement of [3H]-LTD4 from human recombinant CysLT1 Leukotriene receptor at 10 uM incubated for 60 mins by scintillation counting analysis relative to control
[19] = biological target: Muscarinic acetylcholine receptor M1 (Homo sapiens) (UniProt P11229); assay: Displacement of [125I]pirenzepine from human recombinant M1 receptor at 10 uM after 60 mins by scintillation counting analysis relative to control
[20] = biological target: Muscarinic acetylcholine receptor M3 (Homo sapiens) (UniProt P20309); assay: Displacement of [3H]4-DAMP from human recombinant M3 receptor at 10 uM after 60 mins by scintillation counting analysis relative to control
[21] = biological target: Neuropeptide Y receptor type 1 (Homo sapiens) (UniProt P25929); assay: Displacement of [125I]peptide YY from human Y1 receptor at 10 uM after 120 mins by scintillation counting analysis relative to control
[22] = biological target: Neuronal acetylcholine receptor; alpha3/beta4 (Homo sapiens) (UniProt P30926+P32297); assay: Displacement of [125I] epibatidine from human nicotinic acetylcholine receptor alpha3/beta4 at 10 uM incubated for 60 mins by scintillation counting analysis relative to control; assay type: protein-complex assay
[23] = biological target: Mu-type opioid receptor (Homo sapiens) (UniProt P35372); assay: Displacement of [3H]DAMGO from human recombinant mu receptor at 10 uM after 120 mins by scintillation counting analysis relative to control
Mus musculus = organism: Mus musculus; assay: Displacement of [3H]-PDBu from mouse phorbol ester receptor at 10 uM incubated for 60 mins by scintillation counting analysis relative to control
Cricetinae = assay: Displacement of [3H]-Glyburide from hamster potassium channel at 10 uM incubated for 120 mins by scintillation counting analysis relative to control
[24] = biological target: Prostaglandin E2 receptor EP4 subtype (Homo sapiens) (UniProt P35408); assay: Displacement of [3H]-Prostaglandin E2 from human recombinant prostanoid receptor EP4 at 10 uM incubated for 120 mins by scintillation counting analysis relative to control
[25] = biological target: P2X receptor (Rattus norvegicus) (UniProt P51579+P49653+P51578+Q64663+P47824+P51577+P49654); assay: Displacement of [3H]alpha, beta-methylene ATP from P2X receptor in rat urinary bladder at 10 uM incubated for 120 mins by scintillation counting analysis relative to control
[26] = biological target: 5-hydroxytryptamine receptor 3A (Homo sapiens) (UniProt P46098); assay: Displacement of [3H]BRL 43694 from human recombinant 5-HT3 receptor at 10 uM after 120 mins by scintillation counting analysis relative to control
[27] = biological target: Sodium-dependent dopamine transporter (Homo sapiens, UniProt Q01959); assay: Displacement of […] from recombinant human Dopamine transporter after 120 mins by scintillation counting analysis; assay type: ADME
[28] = Fraction unbound in rat plasma at 5 uM incubated for 4 hrs by equilibrium dialysis based LC-MS/MS analysis; assay type: ADME, cell-free
[29] = Fraction unbound in mouse plasma at 5 uM incubated for 4 hrs by equilibrium dialysis based LC-MS/MS analysis; assay type: ADME, cell-free

Sequence of Metabotropic glutamate receptor 7 (Rattus norvegicus) (P35400 whole entry): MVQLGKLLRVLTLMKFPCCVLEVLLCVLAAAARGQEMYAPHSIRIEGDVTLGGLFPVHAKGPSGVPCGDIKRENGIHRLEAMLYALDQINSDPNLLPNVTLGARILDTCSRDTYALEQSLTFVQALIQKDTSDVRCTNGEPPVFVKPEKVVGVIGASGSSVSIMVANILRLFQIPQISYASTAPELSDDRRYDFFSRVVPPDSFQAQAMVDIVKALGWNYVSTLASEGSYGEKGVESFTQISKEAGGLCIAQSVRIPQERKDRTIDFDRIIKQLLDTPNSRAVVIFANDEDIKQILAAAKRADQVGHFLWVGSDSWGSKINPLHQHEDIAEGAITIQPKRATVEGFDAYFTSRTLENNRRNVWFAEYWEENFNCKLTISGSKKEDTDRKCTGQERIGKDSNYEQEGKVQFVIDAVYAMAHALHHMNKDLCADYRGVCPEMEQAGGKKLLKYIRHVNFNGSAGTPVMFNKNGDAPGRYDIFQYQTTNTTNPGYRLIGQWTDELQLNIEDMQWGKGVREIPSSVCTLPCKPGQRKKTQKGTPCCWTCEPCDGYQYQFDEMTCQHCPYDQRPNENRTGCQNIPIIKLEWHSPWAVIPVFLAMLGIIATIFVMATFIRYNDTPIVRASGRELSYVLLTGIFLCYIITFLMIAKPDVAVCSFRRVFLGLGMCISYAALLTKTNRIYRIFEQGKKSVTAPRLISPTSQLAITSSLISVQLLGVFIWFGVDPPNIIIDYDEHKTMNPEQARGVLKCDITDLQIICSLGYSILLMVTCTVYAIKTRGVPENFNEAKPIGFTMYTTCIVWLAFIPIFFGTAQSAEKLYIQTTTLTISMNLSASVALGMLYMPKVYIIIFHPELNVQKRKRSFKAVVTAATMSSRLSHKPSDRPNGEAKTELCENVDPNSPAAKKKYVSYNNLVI
Sequence of D(2) dopamine receptor (Homo sapiens) (P14416 whole entry): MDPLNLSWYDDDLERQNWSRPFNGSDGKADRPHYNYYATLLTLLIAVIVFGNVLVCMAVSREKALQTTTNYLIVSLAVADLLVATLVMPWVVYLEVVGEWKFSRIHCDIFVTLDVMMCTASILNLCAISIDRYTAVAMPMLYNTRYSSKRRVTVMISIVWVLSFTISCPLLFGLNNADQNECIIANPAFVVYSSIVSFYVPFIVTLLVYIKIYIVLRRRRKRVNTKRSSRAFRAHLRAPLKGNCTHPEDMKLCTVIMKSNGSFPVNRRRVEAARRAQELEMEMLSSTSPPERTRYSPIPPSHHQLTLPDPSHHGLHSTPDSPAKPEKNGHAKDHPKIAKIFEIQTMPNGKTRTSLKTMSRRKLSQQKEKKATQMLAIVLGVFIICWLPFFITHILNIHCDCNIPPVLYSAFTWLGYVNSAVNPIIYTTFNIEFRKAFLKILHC
Sequence of Androgen receptor (Homo sapiens) (P10275 whole entry): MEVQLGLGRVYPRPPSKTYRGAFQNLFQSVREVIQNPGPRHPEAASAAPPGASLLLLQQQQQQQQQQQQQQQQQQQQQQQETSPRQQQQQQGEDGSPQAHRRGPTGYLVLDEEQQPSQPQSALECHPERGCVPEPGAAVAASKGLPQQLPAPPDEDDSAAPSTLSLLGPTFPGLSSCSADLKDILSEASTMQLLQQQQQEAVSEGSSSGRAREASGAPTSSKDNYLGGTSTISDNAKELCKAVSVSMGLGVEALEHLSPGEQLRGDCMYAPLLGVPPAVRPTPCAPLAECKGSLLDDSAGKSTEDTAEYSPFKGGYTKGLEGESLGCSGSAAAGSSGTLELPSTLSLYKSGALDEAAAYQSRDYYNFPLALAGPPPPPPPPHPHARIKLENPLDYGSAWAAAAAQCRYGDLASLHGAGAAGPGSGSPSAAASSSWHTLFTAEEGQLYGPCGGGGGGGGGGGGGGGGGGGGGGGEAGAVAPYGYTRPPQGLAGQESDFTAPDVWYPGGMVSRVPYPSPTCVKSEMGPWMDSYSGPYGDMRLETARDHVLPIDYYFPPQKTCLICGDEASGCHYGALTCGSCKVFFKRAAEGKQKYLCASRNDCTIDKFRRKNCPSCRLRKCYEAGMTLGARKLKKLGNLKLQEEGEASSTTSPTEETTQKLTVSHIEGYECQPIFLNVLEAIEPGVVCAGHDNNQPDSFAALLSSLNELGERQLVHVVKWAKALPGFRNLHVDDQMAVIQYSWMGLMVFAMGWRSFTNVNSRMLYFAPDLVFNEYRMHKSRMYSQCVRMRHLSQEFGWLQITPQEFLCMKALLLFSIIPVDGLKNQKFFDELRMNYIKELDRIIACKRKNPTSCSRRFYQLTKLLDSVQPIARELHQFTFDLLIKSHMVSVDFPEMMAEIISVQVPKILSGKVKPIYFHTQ
Sequence of Muscarinic acetylcholine receptor M1 (Homo sapiens) (P11229 whole entry): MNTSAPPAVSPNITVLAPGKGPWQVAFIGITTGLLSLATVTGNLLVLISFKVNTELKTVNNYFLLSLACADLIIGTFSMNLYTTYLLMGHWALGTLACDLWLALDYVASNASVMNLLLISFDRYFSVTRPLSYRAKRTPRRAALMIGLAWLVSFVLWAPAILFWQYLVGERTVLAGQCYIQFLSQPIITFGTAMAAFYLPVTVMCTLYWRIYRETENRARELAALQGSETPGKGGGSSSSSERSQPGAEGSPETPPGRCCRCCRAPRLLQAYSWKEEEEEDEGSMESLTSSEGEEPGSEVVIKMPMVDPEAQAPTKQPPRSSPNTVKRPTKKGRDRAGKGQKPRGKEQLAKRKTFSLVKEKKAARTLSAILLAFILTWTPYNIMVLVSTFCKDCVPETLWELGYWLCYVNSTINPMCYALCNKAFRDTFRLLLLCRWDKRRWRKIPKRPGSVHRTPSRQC
Sequence of 5-hydroxytryptamine receptor 3A (Homo sapiens) (P46098 whole entry): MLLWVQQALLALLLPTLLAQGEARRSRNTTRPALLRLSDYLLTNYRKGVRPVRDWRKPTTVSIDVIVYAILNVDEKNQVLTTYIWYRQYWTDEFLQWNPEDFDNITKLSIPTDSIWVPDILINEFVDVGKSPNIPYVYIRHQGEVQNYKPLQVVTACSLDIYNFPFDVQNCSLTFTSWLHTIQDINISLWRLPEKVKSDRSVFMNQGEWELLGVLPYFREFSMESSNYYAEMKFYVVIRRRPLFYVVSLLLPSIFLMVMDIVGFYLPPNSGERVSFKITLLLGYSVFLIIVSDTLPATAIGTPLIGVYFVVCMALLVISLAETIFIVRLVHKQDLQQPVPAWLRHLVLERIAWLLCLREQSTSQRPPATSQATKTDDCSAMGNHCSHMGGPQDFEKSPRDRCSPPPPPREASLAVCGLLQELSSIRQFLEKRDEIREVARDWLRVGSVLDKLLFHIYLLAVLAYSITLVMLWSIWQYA
Sequence of Endothelin-1 receptor (Homo sapiens) (P25101 whole entry): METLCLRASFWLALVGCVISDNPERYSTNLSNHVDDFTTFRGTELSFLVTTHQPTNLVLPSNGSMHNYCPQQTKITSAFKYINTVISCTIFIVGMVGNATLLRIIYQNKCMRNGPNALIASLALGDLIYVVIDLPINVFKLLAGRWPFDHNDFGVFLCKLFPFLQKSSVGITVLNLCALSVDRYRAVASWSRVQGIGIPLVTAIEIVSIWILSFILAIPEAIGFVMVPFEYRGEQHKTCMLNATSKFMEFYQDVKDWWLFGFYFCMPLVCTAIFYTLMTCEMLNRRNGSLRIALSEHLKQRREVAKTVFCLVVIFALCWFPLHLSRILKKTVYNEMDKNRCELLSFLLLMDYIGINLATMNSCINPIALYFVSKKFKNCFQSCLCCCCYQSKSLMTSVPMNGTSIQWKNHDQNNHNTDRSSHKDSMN
Sequence of Neuropeptide Y receptor type 1 (Homo sapiens) (P25929 whole entry): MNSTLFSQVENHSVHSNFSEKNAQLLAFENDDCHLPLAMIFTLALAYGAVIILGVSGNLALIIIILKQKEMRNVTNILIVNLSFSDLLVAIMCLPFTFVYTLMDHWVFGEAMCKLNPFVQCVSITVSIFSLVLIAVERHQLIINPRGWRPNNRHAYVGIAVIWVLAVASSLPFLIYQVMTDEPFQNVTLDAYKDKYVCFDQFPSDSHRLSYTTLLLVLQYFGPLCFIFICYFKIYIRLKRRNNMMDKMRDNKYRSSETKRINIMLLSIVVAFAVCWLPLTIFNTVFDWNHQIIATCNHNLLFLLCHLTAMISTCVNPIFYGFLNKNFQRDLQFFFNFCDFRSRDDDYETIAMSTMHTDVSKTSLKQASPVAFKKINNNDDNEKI
Sequence of Cysteinyl leukotriene receptor 1 (Homo sapiens) (Q9Y271 whole entry): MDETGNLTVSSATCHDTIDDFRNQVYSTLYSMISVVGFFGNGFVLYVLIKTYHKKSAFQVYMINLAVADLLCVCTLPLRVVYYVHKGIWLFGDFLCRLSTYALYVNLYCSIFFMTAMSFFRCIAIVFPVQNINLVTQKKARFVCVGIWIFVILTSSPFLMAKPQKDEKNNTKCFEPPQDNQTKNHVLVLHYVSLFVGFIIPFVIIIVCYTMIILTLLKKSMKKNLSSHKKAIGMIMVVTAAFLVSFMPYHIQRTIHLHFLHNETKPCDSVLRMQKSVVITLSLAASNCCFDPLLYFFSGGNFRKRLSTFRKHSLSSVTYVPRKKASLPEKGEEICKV
Sequence of Mu-type opioid receptor (Homo sapiens) (P35372 whole entry): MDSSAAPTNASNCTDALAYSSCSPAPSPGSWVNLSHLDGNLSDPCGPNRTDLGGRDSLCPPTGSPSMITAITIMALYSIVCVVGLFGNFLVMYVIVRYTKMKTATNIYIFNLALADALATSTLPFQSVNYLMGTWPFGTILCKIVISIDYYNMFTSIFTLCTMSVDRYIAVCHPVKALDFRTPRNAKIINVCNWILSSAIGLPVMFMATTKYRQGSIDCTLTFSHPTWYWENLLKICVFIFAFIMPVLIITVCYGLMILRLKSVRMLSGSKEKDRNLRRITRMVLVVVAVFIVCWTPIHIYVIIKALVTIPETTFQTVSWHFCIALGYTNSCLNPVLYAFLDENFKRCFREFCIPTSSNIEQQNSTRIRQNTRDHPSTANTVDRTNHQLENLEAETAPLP

**Q.** For `COc1cc(F)cc2c(N3CCN(c4ccccc4F)CC3)c(C#N)cnc12`, which inhibition (Rattus norvegicus [1]; tested as the 2H-labelled form) is on record?
**A.** < 50%

**Q.** And the inhibition ([2]; tested as the 2H-labelled form)?
**A.** < 50%

**Q.** And the Activity [3]?
**A.** 98%

**Q.** What about the Activity ([3]; tested as the 2H-labelled form) of the same compound?
**A.** 98%

**Q.** What about the inhibition ([4]; tested as the 2H-labelled form) of the same compound?
**A.** < 50%

**Q.** And the inhibition ([5]; tested as the 2H-labelled form)?
**A.** < 50%

**Q.** And the inhibition ([6]; tested as the 2H-labelled form)?
**A.** < 50%

**Q.** What about the inhibition ([7]; tested as the 2H-labelled form) of the same compound?
**A.** < 50%

**Q.** What about the inhibition ([8]; tested as the 2H-labelled form) of the same compound?
**A.** < 50%

**Q.** And the inhibition ([9]; tested as the 2H-labelled form)?
**A.** < 50%

**Q.** What about the inhibition ([10]; tested as the 2H-labelled form) of the same compound?
**A.** < 50%

**Q.** What about the inhibition ([11]; tested as the 2H-labelled form) of the same compound?
**A.** < 50%

**Q.** And the inhibition (Rattus norvegicus [12]; tested as the 2H-labelled form)?
**A.** < 50%

**Q.** What about the inhibition ([13]; tested as the 2H-labelled form) of the same compound?
**A.** < 50%

**Q.** And the inhibition (Rattus norvegicus [14]; tested as the 2H-labelled form)?
**A.** < 50%

**Q.** What about the inhibition ([15]; tested as the 2H-labelled form) of the same compound?
**A.** < 50%

**Q.** And the inhibition ([16]; tested as the 2H-labelled form)?
**A.** < 50%

**Q.** And the inhibition ([17]; tested as the 2H-labelled form)?
**A.** < 50%

**Q.** And the inhibition ([18]; tested as the 2H-labelled form)?
**A.** < 50%

**Q.** And the inhibition ([19]; tested as the 2H-labelled form)?
**A.** < 50%

**Q.** And the inhibition ([20]; tested as the 2H-labelled form)?
**A.** < 50%

**Q.** What about the inhibition ([21]; tested as the 2H-labelled form) of the same compound?
**A.** < 50%

**Q.** What about the inhibition ([22]; tested as the 2H-labelled form) of the same compound?
**A.** < 50%

**Q.** And the inhibition ([23]; tested as the 2H-labelled form)?
**A.** < 50%

**Q.** And the inhibition (Mus musculus; tested as the 2H-labelled form)?
**A.** < 50%

**Q.** What about the inhibition (Cricetinae; tested as the 2H-labelled form) of the same compound?
**A.** < 50%

**Q.** And the inhibition ([24]; tested as the 2H-labelled form)?
**A.** < 50%

**Q.** What about the inhibition ([25]; tested as the 2H-labelled form) of the same compound?
**A.** < 50%

**Q.** What about the inhibition ([26]; tested as the 2H-labelled form) of the same compound?
**A.** < 50%

**Q.** What about the IC50 [27] of the same compound?
**A.** > 10000 nM

**Q.** And the fraction unbound at 4 h, 5 µM [28]?
**A.** 0.01

**Q.** What about the fraction unbound at 4 h, 5 µM [29] of the same compound?
**A.** 0.012

**Q.** Which inhibition (Rattus norvegicus [1]) does the source give for `COc1cccc2c(N3CCN(c4ccccc4F)CC3)c(C#N)cnc12` here?
**A.** < 50%

**Q.** What about the inhibition [2] of the same compound?
**A.** < 50%

**Q.** And the Activity [3]?
**A.** 85.1%

**Q.** What about the Activity ([3]; tested as the 2H-labelled form) of the same compound?
**A.** 73%

**Q.** And the inhibition [4]?
**A.** < 50%

**Q.** What about the inhibition [5] of the same compound?
**A.** < 50%

**Q.** And the inhibition [6]?
**A.** < 50%

**Q.** And the inhibition [7]?
**A.** < 50%

**Q.** What about the inhibition [8] of the same compound?
**A.** < 50%

**Q.** And the inhibition [9]?
**A.** < 50%

**Q.** What about the inhibition [10] of the same compound?
**A.** < 50%

**Q.** What about the inhibition [11] of the same compound?
**A.** < 50%

**Q.** And the inhibition (Rattus norvegicus [12])?
**A.** < 50%

**Q.** And the inhibition [13]?
**A.** < 50%

**Q.** And the inhibition (Rattus norvegicus [14])?
**A.** < 50%

**Q.** And the inhibition [15]?
**A.** < 50%

**Q.** What about the inhibition [16] of the same compound?
**A.** < 50%

**Q.** And the inhibition [17]?
**A.** < 50%

**Q.** What about the inhibition [18] of the same compound?
**A.** < 50%

**Q.** And the inhibition [19]?
**A.** < 50%

**Q.** What about the inhibition [20] of the same compound?
**A.** < 50%

**Q.** And the inhibition [21]?
**A.** < 50%

**Q.** What about the inhibition [22] of the same compound?
**A.** < 50%

**Q.** What about the inhibition [23] of the same compound?
**A.** < 50%

**Q.** And the inhibition (Mus musculus)?
**A.** < 50%

**Q.** What about the inhibition (Cricetinae) of the same compound?
**A.** < 50%

**Q.** What about the inhibition [24] of the same compound?
**A.** < 50%

**Q.** And the inhibition [25]?
**A.** < 50%

**Q.** What about the inhibition [26] of the same compound?
**A.** < 50%

**Q.** What about the Ki [27] of the same compound?
**A.** 430 nM

**Q.** And the fraction unbound at 4 h, 5 µM [28]?
**A.** 0.032

**Q.** What about the fraction unbound at 4 h, 5 µM [29] of the same compound?
**A.** 0.051
